Results: patent publication US20150140015A1, “METHODS AND PHARMACEUTICAL COMPOSITIONS FOR THE TREATMENT OF PANCREATIC CANCER” (INSERM (Institut National de la Sante et de la Recherche …, priority 2013, published 2015)
Entries after “also recorded” stand apart in the source; their conditions may differ.

Tests used:
AsPC-1 cells = assay: Activated caspase-3 immunostaining in AsPC-1 cells; assay type: cell-based, human; conditions: 1 μM orexin-A, 48 hr
Method: FIG. 4A-C. Effect of orexin-A on apoptosis in AsPC-1 cells. A, SHP-2 protein tyrosine phosphatase inhibitor, NSC-87877, blocks orexin-induced apoptosis. AsPC-1 cells were challenged with (black bars) or without (white bars) 1 μM orexin-A for 48 hr in the absence or presence of NSC-87877 (50 μM). Apoptosis was measured by determination of annexin V-PE binding, and results are expressed as the percentage of apoptotic cells; B and C: Indirect immunostaining of activated caspase-3 in AsPC-1 cells in the presence or absence of orexin-A. Paraformaldehyde-fixed AsPC-1 cells were challenged with (orexin-A) or without (basal) 1 μM orexin-A for 48 hr. Activated caspase-3 immunostaining is shown in B and scored in C. […]
After dewaxing, rehydrating tumor paraffin sections, and antigen retrieval by pretreatment with high temperature at pH 9, immunohistochemical procedures were carried out using an automated immunohistochemical stainer according to the manufacturer's guidelines (Bond-Max slide stainer, Menarini, Leica Microsystems). […] OX1R immunostaining was evaluated by two investigators (TV and AC) by calculating a score (0-300) obtained by multiplying the intensity (negative, 0; weak, 1; moderate, 2; and strong, 3) by the percentage of stained cells. The pattern of expression (cytoplasmic, membranous, and nuclear) was also recorded, and a mean score was calculated for each tumor. […]

[1] = system: AsPC-1 cells xenografted in nude mice; assay: Tumorigenicity assay: AsPC-1 cells xenografted in nude mice; assay type: in vivo; conditions: for decrease of tumor volume: 30-day treatment; for activated caspase-3 immunostaining in xenografted AsPC-1 tumors: orexin-A 1 μmoles/Kg daily i.p., 30 days
Method: FIGS. 6A and B. Effect of daily inoculation of orexin-A on the growth of tumors developed by xenografting human PDCA cells in nude mice. AsPC-1 cells were inoculated in the flank of nude mice at day 0. Mice were injected daily intraperitoneally with 100 μl of orexin-A solutions starting at day 0 (◯) or day 14 (▴) or with 100 μl of PBS ([…]) for controls. A, the daily treatment corresponded to 1 μmoles of orexin-A/Kg. Inset represents the tumor weight measured at the end of the experiment after the mice were sacrificed; B, mice received 0.01, 0.1, 1 or 10 μmoles of orexin-A/kg. After 30 days of treatment, mice were sacrificed and tumor volume and weight were then recorded. The development of tumors was followed by caliper measurement. Data are the means±SE of 6 tumors in each group. *** p<0.01 versus control.
FIG. 7A-F. Indirect immunostaining of activated caspase-3 in xenografted AsPC-1 tumors resected from nude mice. Paraformaldehyde-fixed xenografted AsPC-1 tumors from nude mice treated daily (B, D and F) by intraperitoneal injections with 1 μmoles/Kg orexin-A or not (A, C and E). […] OX1R immunostaining localisation was similar under control and orexin-A treatment conditions.
(§1) Control mice received PBS.
After dewaxing, rehydrating tumor paraffin sections, and antigen retrieval by pretreatment with high temperature at pH 9, immunohistochemical procedures were carried out using an automated immunohistochemical stainer according to the manufacturer's guidelines (Bond-Max slide stainer, Menarini, Leica Microsystems). For immunohistochemistry on cell lines, cells in pellets were fixed in formalin, embedded in cell blocks (Shandon Cytoblock; Thermo Scientific; USA) and cut into 3 μm sections. OX1R evaluation was performed in human PDAC, included in TMA, in xenografted tumors and in cell lines (AsPC-1, HPAF-II and HPAF-II/hOX1R). After antigen retrieval, 3 μm cells or tissue sections were incubated for 30 minutes with a polyclonal anti-OX1R antibody (My Bio Source; polyclonal goat; 1/300), rinsed, and then incubated with a biotinylated secondary rabbit anti-goat antibody (Vector BA-500; 1/400). Sections were rinsed and incubated with Streptavidin (TrekAvidin-HRP; Biocare Medical) and DAB ultraview detection kit (Bond Polymer Refine detection; DS9800; Leica Microsystems). Substitution of the primary antibody with PBS was used as a negative control. OX1R immunostaining was evaluated by two investigators (TV and AC) by calculating a score (0-300) obtained by multiplying the intensity (negative, 0; weak, 1; moderate, 2; and strong, 3) by the percentage of stained cells. The pattern of expression (cytoplasmic, membranous, and nuclear) was also recorded, and a mean score was calculated for each tumor. Internal positive controls consisted of normal pancreatic islets while the HEK/hOX1R cell line served as an external positive control. Specificity of the immunostaining was verified by incubation of OX1R antibody with its homologous immunogenic peptide or omission of the primary antibody. Apoptosis determination was performed in tumor cell lines (AsPC-1, HPAF-II and HPAF-II/hOX1R) and resected xenografts, treated or not with orexin-A. Three μm cell sections were immunolabelled for activated caspase-3 after antigen retrieval (ABGENT; cleaved caspase 3; polyclonal rabbit; 1/100) using a detection kit (Bond Polymer Refine detection; DS9800; Leica Microsystems). Substitution of the primary antibody with PBS was used as a negative control. External positive controls consisted of normal lymph nodes. Cleaved caspase-3 immunostaining was determined by calculating the percentage of tumor cells stained in 10 fields of xenografted tumor cells, each field comprising 500 tumor cells.

[2] = system: parental HPAF-II cells xenografted in nude mice; assay: Tumorigenicity assay: parental HPAF-II cells xenografted in nude mice; assay type: in vivo; conditions: daily treatment with 1 mole orexin-A/kg (so in the source)
Method: (§2) FIG. 8A-C. Effect of daily inoculation of orexin-A on the growth of tumors developed by xenografting OX1R expressing recombinant HPAF-II cells in nude mice. Parental HPAF-II (A) or recombinant OX1R/HPAF-II/cells (B) were inoculated in the flank of nude mice at day 0. Mice were injected daily intraperitoneally with 100 μl of 1 μmoles of orexin-A/Kg solutions starting at day 0 for both cell lines (◯) or day 28 for OX1R/HPAF-II cells (▴) or with 100 μl of PBS ([…]) for controls. The development of tumors was followed by caliper measurement; C. Formalin-fixed xenografted HPAF-II or OX1R/HPAF-II tumors from nude mice intraperitoneally injected daily or not with 1 μmoles/Kg orexin-A were analyzed by cleaved caspase-3 immunostaining. Cleaved caspase-3 positive cells were counted in 10 different fields, each comprising 500 tumoral cells, in the presence (black bars) or absence (white bars) of 50 days orexin-A treatment. Data are the means±SE of 6 tumors in each group; *** p<0.01 versus control.
as §1

[3] = system: recombinant HPAF-II/OX1R cells xenografted in nude mice; assay: Tumorigenicity assay: recombinant HPAF-II/OX1R cells xenografted in nude mice; assay type: in vivo
Method: as §2, §1
After dewaxing, rehydrating tumor paraffin sections, and antigen retrieval by pretreatment with high temperature at pH 9, immunohistochemical procedures were carried out using an automated immunohistochemical stainer according to the manufacturer's guidelines (Bond-Max slide stainer, Menarini, Leica Microsystems). For immunohistochemistry on cell lines, cells in pellets were fixed in formalin, embedded in cell blocks (Shandon Cytoblock; Thermo Scientific; USA) and cut into 3 μm sections. […] OX1R immunostaining was evaluated by two investigators (TV and AC) by calculating a score (0-300) obtained by multiplying the intensity (negative, 0; weak, 1; moderate, 2; and strong, 3) by the percentage of stained cells. The pattern of expression (cytoplasmic, membranous, and nuclear) was also recorded, and a mean score was calculated for each tumor. […] Cleaved caspase-3 immunostaining was determined by calculating the percentage of tumor cells stained in 10 fields of xenografted tumor cells, each field comprising 500 tumor cells.

[4] = system: AsPC-1 cells xenografted in nude mice; assay: Tumorigenicity assay: AsPC-1 cells xenografted in nude mice; assay type: in vivo

orexin-A: 33 amino acid hypothalamic neuropeptide, OX1R agonist, SEQ ID NO:2; peptide from GL Biochemicals
cleavage and activation of caspase 3 (AsPC-1 cells): induced the cleavage and activation of caspase 3 | decrease in tumor volume as compared to untreated mice ([1]; 1 μmol/kg daily i.p. beginning the day cells were xenografted): 48.8% | volume of established tumors ([1]; 1 μmol/kg daily, started 14 days after cell inoculation): rapidly and strongly reduced | weight of tumors, treatment from day 0 versus from day 14 ([1]; 1 μmol/kg daily, tumors resected after sacrifice): No differences | tumoral cell death (Hemalum Eosin Safran staining) ([1]; 1 μmoles/Kg orexin-A daily i.p.): induced tumoral cell death | decrease of tumor volume ([1]; 0.01 moles orexin-A/kg (so in the source)): 34.4% | decrease of tumor volume ([1]; 0.1 moles orexin-A/kg (so in the source)): 30.6% | decrease of tumor volume ([1]; 1 moles orexin-A/kg (so in the source)): 46.7% | decrease of tumor volume ([1]; 10 moles orexin-A/kg (so in the source)): 52.8% | decline of tumor progression ([1]; Example 1, Orexin-A injection): 49% | activated caspase-3 immunostaining in xenografted AsPC-1 tumors [1]: intense staining | activated caspase-3 immunostaining in xenografted AsPC-1 tumors ([1]; listed as Orexin-A): strong immunostaining; also recorded: Induction of apoptosis was observed | tumor growth inhibition [2]: unable to promote tumor growth inhibition | caspase-3 activation in tumors as compared to tumors from parental HPAF-II cells ([3]; 1 μmoles/Kg daily i.p., 50 days, cleaved caspase-3 positive cells): 3.5 fold | tumor volumes, treatment of established tumors ([3]; orexin-A started after 28 days tumor growth): significant reduction in tumor volumes | inhibition of tumor development ([3]; treated daily with orexin-A from day 0): about 65% | tumor volume decrease under other injection frequencies ([4]; 2 or 3 injections/week (data not shown)): same results | reduction of tumor volume versus daily injections ([4]; once or twice weekly therapy (data not shown)): equivalent or even more effective
